We go through 38 molecules from US9988379B2, “GPR40 receptor agonist, methods of preparing the same, and pharmaceutical compositions containing the same as an active agent” (LG CHEM, LTD., priority 2012, dated 2018).

The target of the test is T1, human GPR40 (Homo sapiens, UniProt O14842).
T1 construct: expressed in transfected cells; host or cells: CHO-K1
T1 sequence (O14842 whole entry): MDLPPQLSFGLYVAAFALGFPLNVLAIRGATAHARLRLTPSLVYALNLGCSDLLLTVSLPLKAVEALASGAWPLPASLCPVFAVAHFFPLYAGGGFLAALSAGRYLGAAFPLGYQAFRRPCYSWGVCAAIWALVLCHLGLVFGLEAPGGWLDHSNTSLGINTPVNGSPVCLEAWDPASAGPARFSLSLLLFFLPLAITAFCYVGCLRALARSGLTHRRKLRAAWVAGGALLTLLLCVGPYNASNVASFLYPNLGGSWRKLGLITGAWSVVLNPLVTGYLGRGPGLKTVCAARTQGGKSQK
Briefly: Induction of Ca2+ (calcium flux assay) using human GPR40 expression cell line. It is filed as cell-based. The settings on record: read-out: EC0.5. Put shortly:
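CHO-K1 cells stably transfected with human GPR40, plated 24 h, loaded 1 h at 37° C with Calcium 5 dye in HBSS/HEPES pH 7.4. Intracellular calcium change after compound addition read on FlexStation; concentration–response of relative activity used to derive EC0.5.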
Regarding `CC#C[C@@H](CC(=O)O)c1ccc(OCc2cnc3c(cnn3CC(C)C)c2)cc1` [Example 156, (S)-3-[4-(1-isobutyl-1H-pyrazolo[3,4-b]pyridin-5-ylmethoxy)-phenyl]-hex-4-ynoic acid], the EC50 was 0.02 µM.

In the case of `CC#C[C@@H](CC(=O)O)c1ccc(OCc2ccc3cn(Cc4ncccn4)nc3c2)cc1` [Example 69, (S)-3-[4-(2-pyrimidin-2-ylmethyl-2H-indazol-6-ylmethoxy]-phenyl}-hex-4-ynoic acid], the EC50 is at least 0.5 µM.

On to `CC#C[C@@H](CC(=O)O)c1ccc(OCc2ccc3ccn(Cc4ccccc4)c3c2Cl)cc1` [Example 40, (S)-3-[4-(1-benzyl-7-chloro-1H-indol-6-ylmethoxy)-phenyl]-hex-4-ynoic acid], for which the EC50 came to 0.06 µM.

`O=C(O)CCc1ccc(OCc2cccc3c2ccn3Cc2ccccc2)cc1F` [Example 54, 3-[4-(1-benzyl-1H-indol-4-ylmethoxy)-2-fluoro-phenyl]-propanoic acid]: the EC50 was in the range of 0.05 to 0.5 µM.

As to `CC#C[C@@H](CC(=O)O)c1ccc(OCc2ccc3c(CN4CCC(F)(F)C4)nn(CC(C)C)c3c2C)cc1` [Example 230, (S)-3-{4-[3-(3,3-difluoro-pyrrolidin-1-ylmethyl)-1-isobutyl-7-methyl-1H-indazol-6-ylmethoxy]-phenyl}-hex-4-ynoic acid], the EC50 fell in the range of 0.001 to 0.05 µM.

As to `O=C(O)CC1CCc2cc(OCc3ccc4cnn(Cc5ccccc5)c4c3)ccc21` (centres unmarked) [Example 109, [5-(1-benzyl-1H-indazol-6-ylmethoxy)-indan-1-yl]-acetic acid], the EC50 was determined as 0.4 µM.

As for `CC#C[C@@H](CC(=O)O)c1ccc(OCc2ccc3cnn(CC(C)C)c3c2)cc1` [Example 114, (S)-3-[4-(1-isobutyl-1H-indazol-6-ylmethoxy)-phenyl]-hex-4-ynoic acid], the EC50 was in the range of 0.001 to 0.05 µM.

Consider `O=C(O)CC1CCOc2cc(OCc3ccc4c(cnn4CC4CCCCC4)c3)ccc21` (centres unmarked) [Example 139, [7-(1-cyclohexyl methyl-1H-indazol-5-ylmethoxy)-chroman-4-yl]-acetic acid], for which the EC50 is 0.3 µM.

For the molecule `O=C(O)C1CC1c1ccc(OCc2ccc3cnn(Cc4ccccc4)c3c2)cc1` (centres unmarked) [Example 167, 2-[4-(1-benzyl-1H-indazol-6-ylmethoxy)-phenyl]-cyclopropane carboxylic acid], the EC50 came to 0.06 µM.

For `CC#C[C@@H](CC(=O)O)c1ccc(OCc2ccc3c(cnn3CC3CCCO3)c2)cc1` (stereo partly drawn) [Example 151, (S)-3-{4-[1-(tetrahydrofuran-2-ylmethyl)-1H-indazol-5-ylmethoxy]-phenyl}-hex-4-ynoic acid], the EC50 fell in the range of 0.001 to 0.05 µM.

Regarding `O=C(O)CCc1ccc(NCc2ccc3c(Cl)cn(Cc4ccccc4)c3c2)cc1` [Example 5, 3-{4-[(1-benzyl-3-chloro-1H-indol-6-ylmethyl)-amino]-phenyl}-propanoic acid], the EC50 came out at 0.03 µM.

Consider `CCOCCn1ncc2cc(COc3ccc4c(c3)OCCC4CC(=O)O)ccc21` (centres unmarked) [Example 149, {7-[1-(2-ethoxy-ethyl)-1H-indazol-5-ylmethoxy]-chroman-4-yl}-acetic acid], for which the EC50 was at least 0.5 µM.

In the case of `CC#C[C@@H](CC(=O)O)c1ccc(OCc2ccc3c(CF)nn(CC(C)C)c3c2C)cc1` [Example 222, (S)-3-[4-(3-fluoromethyl-1-isobutyl-7-methyl-1H-indazol-6-ylmethoxy)-phenyl]-hex-4-ynoic acid], the EC50 was found to be 0.005 µM.

For `CC#C[C@@H](CC(=O)O)c1ccc(OCc2ccc3nn(CCOCC)cc3c2)cc1` [Example 160, (S)-3-{4-[2-(2-ethoxy-ethyl)-2H-indazol-5-ylmethoxy]-phenyl}-hex-4-ynoic acid], the EC50 was 0.05 to 0.5 µM.

Regarding `CC#C[C@@H](CC(=O)O)c1ccc(OCc2cc3cnn(CC(C)C)c3cc2C)cc1` [Example 183, (S)-3-[4-(1-isobutyl-6-methyl-1H-indazol-5-ylmethoxy)-phenyl]-hex-4-ynoic acid], the EC50 is 0.001 to 0.05 µM.

In the case of `CC#C[C@@H](CC(=O)O)c1ccc(OCc2ccc3c(F)nn(CC)c3c2C)cc1` [Example 214, (S)-3-[4-(1-ethyl-3-fluoro-7-methyl-1H-indazol-6-ylmethoxy)-phenyl]-hex-4-ynoic acid], the EC50 amounted to 0.002 µM.

As for `CC#C[C@@H](CC(=O)O)c1ccc(OCc2cccc3c(CCCC)nn(C)c23)cc1` [Example 206, (S)-3-[4-(3-butyl-1-methyl-1H-indazol-7-ylmethoxy)-phenyl]-hex-4-ynoic acid], the EC50 was in the range of 0.001 to 0.05 µM.

As for `CC#C[C@@H](CC(=O)O)c1ccc(OCc2ccc3c(CN4CCCC4)nn(CC(C)C)c3c2C)cc1` [Example 217, (S)-3-[4-(1-isobutyl-7-methyl-3-pyrrolidin-1-ylmethyl-1H-indazol-6-ylmethoxy)-phenyl]-hex-4-ynoic acid], the EC50 was found to be 0.02 µM.

Consider `CC#C[C@@H](CC(=O)O)c1ccc(OCc2ccc3ccn(Cc4c(F)cccc4F)c3c2C)cc1` [Example 33, (S)-3-{4-[1-(2,6-difluoro-benzyl)-7-methyl-1H-indol-6-ylmethoxy]-phenyl}-hex-4-ynoic acid], for which the EC50 was determined as 0.02 µM.

Take `CC#C[C@@H](CC(=O)O)c1ccc(OCc2ccc3ccn(Cc4c(C)cccc4C)c3c2C)cc1` [Example 39, (S)-3-{4-[1-(2,6-dimethyl-benzyl)-7-methyl-1H-indol-6-ylmethoxy]-phenyl}-hex-4-ynoic acid]: the EC50 was found to be 0.2 µM.

For `CC#C[C@@H](CC(=O)O)c1ccc(OCc2ccc3ccn(Cc4ncccn4)c3c2C)cc1` [Example 64, (S)-3-[4-(7-methyl-1-pyrimidin-2-ylmethyl-1H-indol-6-ylmethoxy)-phenyl]-hex-4-ynoic acid], the EC50 fell in the range of 0.05 to 0.5 µM.

With `CC#C[C@@H](CC(=O)O)c1ccc(OCc2cccc3nn(Cc4cnc(C)cn4)cc23)cc1` [Example 78, (S)-3-{4-[2-(5-methyl-pyrazin-2-ylmethyl)-2H-indazol-4-ylmethoxy]-phenyl}-hex-4-ynoic acid], the EC50 lay in the range of 0.05 to 0.5 µM.

With `CC#C[C@@H](CC(=O)O)c1ccc(OCc2ccc3ccn(Cc4ccc(C(F)(F)F)cc4)c3c2C)cc1` [Example 29, (S)-3-{4-[7-methyl-1-(4-trifluoromethyl-benzyl)-1H-indol-6-ylmethoxy]-phenyl}-hex-4-ynoic acid], the EC50 amounted to 0.07 µM.

For `O=C(O)CCc1ccc(NCc2ccc3ccn(CCc4ccccc4)c3c2)cc1` [Example 4, 3-{4-[(1-phenethyl-1H-indol-6-ylmethyl)-amino]-phenyl}-propanoic acid], the EC50 came to 0.05 µM.

For `CC#C[C@@H](CC(=O)O)c1ccc(OCc2cccc3c(Cl)nn(C)c23)cc1` [Example 201, (S)-3-[4-(3-chloro-1-methyl-1H-indazol-7-ylmethoxy)-methyl]-hex-4-ynoic acid], the EC50 turned out to be 0.01 µM.

As to `CC#C[C@@H](CC(=O)O)c1ccc(OCc2ccc3c(cnn3CC(C)C)c2)cc1` [Example 132, (S)-3-[4-(1-isobutyl-1H-indazol-5-ylmethoxy)-phenyl]-hex-4-ynoic acid], the EC50 is 0.001 to 0.05 µM.

For `CC#C[C@@H](CC(=O)O)c1ccc(OCc2ccc3c(cnn3C(C)C)c2)cc1` [Example 116, (S)-3-[4-(1-isopropyl-1H-indazol-5-ylmethoxy)-phenyl]-hex-4-ynoic acid], the EC50 was in the range of 0.001 to 0.05 µM.

Turning to `CC#C[C@@H](CC(=O)O)c1ccc(OCc2ccc3ccn(Cc4ccccc4C)c3c2C)cc1` [Example 36, (S)-3-{4-[7-methyl-1-(2-methyl-benzyl)-1H-indol-6-ylmethoxy]-phenyl}-hex-4-ynoic acid], the EC50 stood at 0.06 µM.

As for `Cc1cnc(Cn2ccc3ccc(COc4ccc([C@H](CC(=O)O)c5ccon5)cc4)c(C)c32)cn1` [Example 92, (S)-3-isoxazol-3-yl-3-{4-[7-methyl-1-(5-methyl-pyrazin-2-ylmethyl)-1H-indol-6-ylmethoxy]-phenyl}-propanoic acid], the EC50 was in the range of 0.001 to 0.05 µM.

With `Cc1ccccc1-c1cn(C)c2ccc(COc3ccc(CCC(=O)O)cc3)cc12` [Example 21, 3-[4-(1-methyl-3-o-tolyl-1H-indol-5-ylmethoxy)-phenyl]-propanoic acid], the EC50 was at least 0.5 µM.

Turning to `Cc1c(COc2ccc([C@H](CC(=O)O)c3ccon3)cc2)ccc2ccn(Cc3ccccc3)c12` [Example 83, (S)-3-[4-(1-benzyl-7-methyl-1H-indol-6-ylmethoxy)-phenyl]-3-isoxazol-3-yl-propanoic acid], the EC50 was 0.01 µM.

On to `CC#C[C@@H](CC(=O)O)c1ccc(OCc2cccc3c2c(Cl)nn3CC(C)C)cc1` [Example 192, (S)-3-[4-(3-chloro-1-isobutyl-1H-indazol-4-ylmethoxy)-phenyl]-hex-4-ynoic acid], for which the EC50 was found to be 0.03 µM.

With `CC#C[C@@H](CC(=O)O)c1ccc(OCc2ccc3ccn(Cc4ccc(F)cc4)c3c2C)cc1` [Example 50, (S)-3-{4-[1-(4-fluoro-benzyl)-7-methyl-1H-indol-6-ylmethoxy]-phenyl}-hex-4-ynoic acid], the EC50 fell in the range of 0.05 to 0.5 µM.

`CC#C[C@@H](CC(=O)O)c1ccc(OCc2cccc3c2cnn3CCCC)cc1` [Example 197, (S)-3-[4-(1-butyl-1H-indazol-4-ylmethoxy)-phenyl]-hex-4-ynoic acid]: the EC50 was 0.005 µM.

As to `CC#C[C@@H](CC(=O)O)c1ccc(OCc2ccc3cn(Cc4ccc(F)cc4)nc3c2)cc1` [Example 67, (S)-3-{4-[2-(4-fluoro-benzyl)-2H-indazol-6-ylmethoxy]-phenyl}-hex-4-ynoic acid], the EC50 is 0.07 µM.

Regarding `CC#C[C@@H](CC(=O)O)c1ccc(OCc2cccc3c2ccn3-c2ccc(F)cc2C)cc1` [Example 32, (S)-3-{4-[1-(4-fluoro-2-methyl-phenyl)-1H-indol-4-ylmethoxy]-phenyl}-hex-4-ynoic acid], the EC50 stood at 0.04 µM.

As for `CC#C[C@@H](CC(=O)O)c1ccc(OCc2cccc3c(C(C)C)nn(C)c23)cc1` [Example 209, (S)-3-[4-(3-isopropyl-1-methyl-1H-indazol-7-ylmethoxy)-phenyl]-hex-4-ynoic acid], the EC50 was in the range of 0.001 to 0.05 µM.

As for `CC#C[C@@H](CC(=O)O)c1ccc(OCc2cccc3c2cnn3Cc2ccccc2)cc1` [Example 48, (S)-3-[4-(1-benzyl-1H-indazol-4-ylmethoxy)-phenyl]-hex-4-ynoic acid], the EC50 fell in the range of 0.001 to 0.05 µM.
